Test results reported in ChEMBL document CHEMBL1201862, “PubChem BioAssay data set” (2004).
Active and inactive are the calls of the source.

Assays:
[1] = target: T1, High affinity choline transporter 1 (Homo sapiens, UniProt Q9GZV3); experiment: human choline transporter blockers, potency – cell-based, 5-point CRC, membrane potential dye, dose response (AID 504840); assay type: functional
T1 sequence (Q9GZV3 whole entry): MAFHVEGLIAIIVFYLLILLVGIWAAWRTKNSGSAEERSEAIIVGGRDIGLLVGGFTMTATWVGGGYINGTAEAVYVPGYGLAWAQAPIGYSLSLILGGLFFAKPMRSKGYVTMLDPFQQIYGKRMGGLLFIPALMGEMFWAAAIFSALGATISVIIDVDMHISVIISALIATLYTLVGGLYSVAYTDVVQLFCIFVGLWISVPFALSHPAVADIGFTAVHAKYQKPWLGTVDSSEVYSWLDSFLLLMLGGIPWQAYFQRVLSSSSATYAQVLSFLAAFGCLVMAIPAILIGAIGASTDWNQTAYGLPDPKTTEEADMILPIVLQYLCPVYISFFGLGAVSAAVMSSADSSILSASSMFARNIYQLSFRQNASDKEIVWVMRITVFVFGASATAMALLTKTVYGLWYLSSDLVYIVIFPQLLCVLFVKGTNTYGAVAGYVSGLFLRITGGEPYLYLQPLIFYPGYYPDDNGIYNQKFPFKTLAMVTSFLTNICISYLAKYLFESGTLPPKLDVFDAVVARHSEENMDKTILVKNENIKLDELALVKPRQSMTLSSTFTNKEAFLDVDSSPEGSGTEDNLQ

[2] = viability of uninfected HEp-2 cells – cell-based, HTS, cytotoxicity control for RSV inhibitor project, dose response (AID 2410); assay type: functional; conditions: human respiratory syncytial virus
cells = assay type: functional
[3] = Vero E6 cell cytotoxicity, dose response, cytotoxicity control for non-replicating M. tuberculosis project, secondary assay (AID 492998); assay type: functional, VeroE6; conditions: Vero C1008
P388 = experiment: cells; assay type: functional; conditions: Mus musculus
P388/ADR = experiment: cells; assay type: functional; conditions: Mus musculus
SN12K1 = experiment: cells; assay type: functional; conditions: Homo sapiens
[4] = target: Heat shock protein HSP 90-alpha (Homo sapiens, UniProt P07900); assay type: functional, organism-based
[5] = Luminescence Cell-Based Dose Response HTS to Identify Activators of Luciferase Translation or Activity in H4 […] Cells. [Related pubchem assays: 1829 (Project Summary), 1814 (Primary HTS)]; assay type: functional
H4 = experiment: Luminescence Cell-Based Dose Response HTS to Identify Activators of 5'UTR Stem-Loop Driven Prion Protein mRNA Translation in H4 Neuroglioblastoma Cells. [Related pubchem assays: 1829 (Project Summary), 1814 (Primary HTS)]; assay type: functional; conditions: Homo sapiens
[6] = HEK-293T viability loss after treatment – luminescence, T-cell screen hits, cytotoxicity control for TCR NF-kB inhibitor project, dose response (AID 489026); assay type: functional, cell-based;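 further: cells exposed to compound about 14 hours before the viability readout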
[7] = Luminescence Cell-Based Dose Retest to Confirm Inhibitors of Cancer Stem Cells. [Related pubchem assays (depositor defined):AID2717, AID2721]; assay type: functional; conditions: Homo sapiens
[8] = viability loss in HEK293 cells – cell-based, plate reader, cherry-picked samples, cytotoxicity control, dose response (AID 743446); assay type: functional
[9] = toxicity toward HepG2 liver cells – cell-based, plate reader, cherry-pick, antagonist series, cytotoxicity control, dose response (AID 743416); assay type: functional
[10] = blockers of bursicon-stimulated LGR2 cAMP reporter – cell-based, HEK293, CRE-luciferase reporter, cherry pick, set 2, dose response (AID 743343); assay type: functional;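 further: transfected cells were stimulated with diluted bursicon conditioned medium after compound addition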
[11] = blockade of melanocortin 4 receptor signaling – cell-based, plate reader, cherry pick, counter-screen for LGR2 antagonist project, dose response (AID 743444); assay type: functional;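 further: transfected HEK 293 cells stimulated with alpha-MSH peptide; potency of inhibitors of the alpha-MSH evoked signal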
[12] = A549 cell cytotoxicity, dose response, cytotoxicity control, plate reader, cherry-pick, antagonist series (AID 743412); assay type: functional, cell-based
[13] = target: T2, Zinc finger protein mex-5 (Caenorhabditis elegans, UniProt Q9XUB2); experiment: potency of MEX-5 RNA-binding blockers – biochemical, C. elegans, fluorescence polarization, dose response (AID 1960)
T2 sequence (Q9XUB2 whole entry): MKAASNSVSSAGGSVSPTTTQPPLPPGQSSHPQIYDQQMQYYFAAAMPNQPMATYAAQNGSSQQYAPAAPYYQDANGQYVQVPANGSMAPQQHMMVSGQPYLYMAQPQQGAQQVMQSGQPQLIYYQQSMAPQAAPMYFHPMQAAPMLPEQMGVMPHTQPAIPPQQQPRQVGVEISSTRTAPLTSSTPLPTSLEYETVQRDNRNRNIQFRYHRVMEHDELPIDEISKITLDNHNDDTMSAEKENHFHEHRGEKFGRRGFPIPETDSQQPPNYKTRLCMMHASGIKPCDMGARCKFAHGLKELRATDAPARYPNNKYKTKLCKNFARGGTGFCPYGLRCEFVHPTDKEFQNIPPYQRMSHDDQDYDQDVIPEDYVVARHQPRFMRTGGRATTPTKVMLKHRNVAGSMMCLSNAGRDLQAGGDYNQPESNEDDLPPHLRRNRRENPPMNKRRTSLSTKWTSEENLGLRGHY

[14] = target: T3, RNA-binding protein pos-1 (Caenorhabditis elegans, UniProt G5EF15); experiment: disruptors of C. elegans POS-1 RNA interaction – biochemical, fluorescence polarization, dose response (AID 1964);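 further: purified POS-1 fused to maltose binding protein made in E. coli; potency of compounds blocking POS-1 binding to fluorescent RNA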
T3 sequence (G5EF15 whole entry): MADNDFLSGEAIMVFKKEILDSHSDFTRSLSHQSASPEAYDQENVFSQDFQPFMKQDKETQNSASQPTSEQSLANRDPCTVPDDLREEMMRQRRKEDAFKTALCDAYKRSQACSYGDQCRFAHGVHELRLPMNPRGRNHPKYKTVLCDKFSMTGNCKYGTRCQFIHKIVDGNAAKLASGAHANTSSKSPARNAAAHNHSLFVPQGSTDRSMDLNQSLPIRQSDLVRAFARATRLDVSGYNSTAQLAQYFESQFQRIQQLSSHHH

H9c2 = experiment: cells; assay type: functional, cell-based; conditions: Rattus norvegicus, H9c2, Myocardium
[15] = fluconazole-exposed Candida albicans growth modulators – fluorescence, retest, confirmation (AID 2467); assay type: functional, cell-based
[16] = THP-1 cell cytotoxicity, dose response, cytotoxicity control for non-replicating M. tuberculosis project (AID 489025); assay type: functional
[17] = NIH-3T3 fibroblast cytotoxicity, dose response, cytotoxicity control, cell-based, fluorescence, Alamar Blue, secondary assay (AID 2327); assay type: functional;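 further: NIH-3T3 mouse fibroblasts cultured with fluconazole at 8 µg/mL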
[18] = microbe, parasite or virus in culture; assay type: functional; conditions: Mycobacterium tuberculosis
Large T antigen = Large T antigen (Simian virus 40, UniProt P03070); assay type: functional, Betapolyomavirus macacae;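 further: Confirmatory-stage PubChem screen for compounds that inhibit SV40 T antigen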
Chain of Large T antigen (P03070 whole entry): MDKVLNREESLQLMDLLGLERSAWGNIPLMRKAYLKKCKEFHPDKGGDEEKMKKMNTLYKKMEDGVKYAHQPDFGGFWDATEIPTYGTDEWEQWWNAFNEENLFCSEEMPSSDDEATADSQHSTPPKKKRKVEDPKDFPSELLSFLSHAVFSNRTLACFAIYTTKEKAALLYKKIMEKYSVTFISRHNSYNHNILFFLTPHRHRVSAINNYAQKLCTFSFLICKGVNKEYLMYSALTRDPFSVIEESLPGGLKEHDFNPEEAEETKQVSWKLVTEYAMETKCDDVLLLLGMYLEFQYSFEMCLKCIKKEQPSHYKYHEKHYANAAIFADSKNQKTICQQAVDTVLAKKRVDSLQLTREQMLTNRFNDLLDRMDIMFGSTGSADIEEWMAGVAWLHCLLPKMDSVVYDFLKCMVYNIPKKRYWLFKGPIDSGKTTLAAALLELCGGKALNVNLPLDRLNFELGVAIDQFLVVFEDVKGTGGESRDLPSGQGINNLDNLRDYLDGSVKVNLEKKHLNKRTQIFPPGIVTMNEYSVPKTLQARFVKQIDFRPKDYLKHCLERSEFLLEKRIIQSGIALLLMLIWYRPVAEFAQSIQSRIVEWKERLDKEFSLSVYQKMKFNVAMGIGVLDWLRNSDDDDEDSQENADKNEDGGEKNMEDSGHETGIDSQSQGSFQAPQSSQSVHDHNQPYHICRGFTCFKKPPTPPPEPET

[19] = P. falciparum Dd2 growth inhibitors, dose response, SYBR Green, cherry-picked samples (AID 1159567); assay type: functional, cell-based
[20] = target: Glyceraldehyde-3-phosphate dehydrogenase (Homo sapiens, UniProt P04406)
Chain of Glyceraldehyde-3-phosphate dehydrogenase (P04406 whole entry): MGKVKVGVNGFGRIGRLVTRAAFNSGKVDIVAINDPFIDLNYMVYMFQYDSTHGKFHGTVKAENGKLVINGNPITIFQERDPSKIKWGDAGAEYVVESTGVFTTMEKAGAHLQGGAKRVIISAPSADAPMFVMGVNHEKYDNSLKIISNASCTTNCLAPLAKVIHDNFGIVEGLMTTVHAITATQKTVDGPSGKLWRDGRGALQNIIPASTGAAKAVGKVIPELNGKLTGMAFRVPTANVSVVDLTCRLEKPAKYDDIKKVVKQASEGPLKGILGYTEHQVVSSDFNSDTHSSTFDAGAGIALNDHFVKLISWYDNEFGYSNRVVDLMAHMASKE

## O=C(Nc1ccccc1Br)C1CCCN1S(=O)(=O)c1cccc2nsnc12 (centres undefined)
[1]
  IC50: 13.8 µM (active)
[2]
  CC50: 33.1 µM (active)

## O=C(NC1CCCCC1)C(c1ccc2ncccc2c1)N(Cc1ccc2c(c1)OCO2)C(=O)c1ccc2c(c1)OCCO2 (centres undefined)
[1]
  IC50: 15.1 µM (active)

## COC(=O)N/N=C/c1ccc([N+](=O)[O-])s1
cells
  IC50: 30.5 µM (active)
[3]
  CC50: > 20 µM (active)

## COc1cc([C@@H]2c3cc4c(cc3[C@@H](OC3OC5COC(C)OC5C(O)C3O)[C@H]3COC(=O)[C@H]23)OCO4)cc(OC)c1O (some centres undefined)
P388
  GI50: 0.275 µM (active)
P388/ADR
  GI50: 58.6 µM (inactive)
SN12K1
  GI50: 1.17 µM (inactive)

## N=C(Cc1ccc(Cl)cc1Cl)NOC(=O)c1ccc(Br)o1
[4]
  AC50: 3.11 µM (active)

## CCN1CCN(Cc2ccccc2NC(=O)Nc2ccc(C)cc2)CC1
[5]
  EC50: > 120 µM (not active)
H4
  EC50: 7.09 µM (active)

## COc1ccccc1C1=NOC(COc2ccc3c(C)cc(=O)oc3c2)C1 (centres undefined)
[6]
  IC50: > 80 µM (inactive)
[7]
  AC50: 0.224 µM (active)

## COc1ccc(OC)c(C2CC(=O)c3c([nH]c(C(=O)OC(C)C)c3C)C2)c1 (centres undefined)
[6]
  IC50: > 80 µM (inactive)

## OCC#CCNCl
P388
  GI50: 16.1 µM (inactive)
P388/ADR
  GI50: > 46 µM (inactive)
SN12K1
  GI50: > 100 µM (inactive)

## O=C(COc1ccc2c(c1)OCO2)Nc1nccs1
[8]
  AC50: 20.6 µM (active)
[9]
  AC50: > 52 µM (inactive)
[10]
  AC50: 7.13 µM (active)
[11]
  AC50: 10.2 µM (active)
[12]
  AC50: > 52 µM (inactive)

## CCOc1cc(C2C(C#N)=C(N)OC3=C2C(=O)CC(C)(C)C3)cc([N+](=O)[O-])c1O (centres undefined)
[13]
  EC50: > 300 µM (not active)
[14]
  EC50: > 300 µM (not active)

## O=[N+]([O-])c1ccc(C2=Nc3cc(Cl)ccc3OC2)cc1
[13]
  EC50: > 300 µM (inconclusive)
[14]
  EC50: 90.7 µM (active)

## Cc1sc2nc(CSCC(=O)N(C)CC(=O)Nc3ccc(F)cc3)nc(O)c2c1C
H9c2
  IC50: 7.7 µM (active)

## Cc1ccc(C(=O)Nc2ccc3c(c2)OCCO3)c(C)c1
[8]
  AC50: > 52 µM (inactive)
[9]
  AC50: > 52 µM (inactive)
[10]
  AC50: 2.74 µM (active)
[11]
  AC50: 2.42 µM (active)
[12]
  AC50: 44.6 µM (active)

## O=C(/C=C/c1ccccc1Cl)c1ccc(O)cc1
[4]
  AC50: 4.46 µM (active)

## CN(CCO)/N=N/c1n[nH]cc1C(N)=O
P388
  GI50: > 100 µM (inactive)
P388/ADR
  GI50: > 100 µM (inactive)
SN12K1
  GI50: > 100 µM (inactive)

## COc1ccnc(Oc2ccccc2)c1C(=O)N=CNOCc1ccc(F)cc1Cl
H9c2
  IC50: > 79 µM (inactive)

## CN(C)CCNC(=O)c1cccc2[nH]c(-c3ccccn3)nc12
P388
  GI50: 14.5 µM (inactive)
P388/ADR
  GI50: 21.3 µM (inactive)
SN12K1
  GI50: 25.2 µM (inactive)

## Cc1noc2ncnc(Sc3ccc(Cl)cc3)c12
cells
  IC50: 8.82 µM (active)
[15]
  EC50: > 38 µM (not active)
[16]
  CC50: 21.3 µM (active)
[17]
  EC50: > 160 µM (inconclusive)
[18]
  CC50: 27.1 µM (active)
[3]
  CC50: > 20 µM (active)

## COc1ccc(C2=CC3=C(Br)C(=O)C(C)(OC(=O)C4CCCC4)C(=O)C3=CO2)cc1 (centres undefined)
[13]
  EC50: > 300 µM (not active)
[4]
  AC50: 1.68 µM (active)
[14]
  EC50: 43.7 µM (active)

## COc1ccc(CC(N)=O)cc1OC
P388
  GI50: > 1250 µM (inactive)
P388/ADR
  GI50: > 1250 µM (inactive)
SN12K1
  GI50: > 1250 µM (inactive)

## COc1cc(/C=N/NC(=O)CCn2nc(C)cc2C)ccc1O
Large T antigen
  IC50: 15.6 µM (active)

## Cc1ccc(-c2ccccc2[C@H]2[C@@H](C#N)N(C(=O)NC3CCCC3)[C@H]2CO)cc1
[19]
  AC50: 7.19 µM (active)

## C=CC[C@@H](CC(=O)NCCO)C(=O)NC[C@H](OC(=O)[C@@H](CC=C)Cc1ccc(F)cc1)c1ccccc1
H9c2
  IC50: > 79 µM (inactive)

## O=C(Nc1ccccc1)Oc1cccc2cccnc12
[4]
  AC50: 3.44 µM (active)

## Cn1nnnc1Sc1ncnc2scc(-c3ccccc3C(F)(F)F)c12
[8]
  AC50: 27.9 µM (active)
[2]
  CC50: 7.66 µM (active)
[12]
  AC50: 20.7 µM (active)

## CCC(C)C1NC(=O)CNC(=O)C2Cc3c([nH]c4cc(O)ccc34)[S+]([O-])CC(NC(=O)CNC1=O)C(=O)NC(CC(=O)O)C(=O)N1CC(O)CC1C(=O)NC(C(C)C(O)CO)C(=O)N2 (centres undefined)
P388
  GI50: 2.47 µM (inactive)
P388/ADR
  GI50: 2.77 µM (inactive)
SN12K1
  GI50: 2.32 µM (inactive)

## Cn1c(=O)[nH]c(=O)c2c1nc(N(CCO)Cc1ccccc1)n2CCCc1ccccc1
H9c2
  IC50: 13.8 µM (active)

## O=C(N/N=C/c1c[nH]c2ccccc12)c1ccc(O)c(O)c1
Large T antigen
  IC50: 9.13 µM (active)

## CCCCCN1C=CC(=C2C(=O)c3ccccc3C2=O)C=C1
[6]
  IC50: > 80 µM (inactive)

## CCOc1ccccc1NC(=O)CN(c1ccc(OC)cc1)S(=O)(=O)c1c(C)noc1C
[6]
  IC50: > 80 µM (inactive)

## COc1ccccc1NC(=O)N1CC[C@H]2[C@@H]1c1cc(C#Cc3ccc(F)cc3)ccc1N(C)[C@H]2CO
[19]
  AC50: 4.14 µM (active)

## O=[N+]([O-])c1cccc2c1[nH]c1c(-c3ccccc3)nccc12
P388
  GI50: 2.52 µM (inactive)
P388/ADR
  GI50: 2.52 µM (inactive)
SN12K1
  GI50: 1.72 µM (inactive)

## C[C@H]1CN(C2=C(Cl)C(=O)N(c3ccc(Cl)nc3)C2=O)CCN1
[20]
  IC50: > 50 µM (inconclusive)

## COc1ccc(OC)c(/C=C2\SC(=S)N(NS(=O)(=O)c3ccccc3)C2=O)c1
[1]
  IC50: 8.71 µM (active)

## Cc1cc(C)c2nc(-n3nc(C)cc3N)cc(C)c2c1
[5]
  EC50: 32.5 µM (active)
H4
  EC50: 1.71 µM (active)
